Data reported in PubChem BioAssay (NCI).
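Following 48 hours of exposure in 96-well plates, responses at five concentrations were used to interpolate endpoints linearly. At the GI50, growth is halved. TGI is the concentration that stops growth completely.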

Experiments:
Test in all cases: inhibition of tumour cell growth, NCI panel, 48 h
[1] = tested on: LOX IMVI melanoma
[2] = tested on: NCI-H460 lung
[3] = tested on: MCF7 breast
[4] = tested on: SR leukemia
[5] = tested on: SN12C renal
[6] = tested on: CCRF-CEM leukemia
[7] = tested on: NCI-H226 lung
[8] = tested on: HOP-92 NSCLC
[9] = tested on: 786-0 renal
[10] = tested on: NCI-H522 lung
[11] = tested on: A549 NSCLC
[12] = tested on: UACC-257 melanoma
[13] = tested on: SF-295 CNS
[14] = tested on: M14 melanoma
[15] = tested on: NCI/ADR-RES ovarian
[16] = tested on: T-47D breast
[17] = tested on: HCT-116 colon
[18] = tested on: EKVX NSCLC
[19] = tested on: SK-MEL-2 melanoma
[20] = tested on: PC-3 prostate
[21] = tested on: OVCAR-3 ovarian
[22] = tested on: CAKI-1 renal
[23] = tested on: MDA-MB-231 breast
[24] = tested on: K-562 leukemia
[25] = tested on: NCI-H23 lung
[26] = tested on: BT-549 breast
[27] = tested on: ACHN renal
[28] = tested on: SF-539 CNS
[29] = tested on: UO-31 renal
[30] = tested on: HT29 colon
[31] = tested on: UACC-62 melanoma
[32] = tested on: COLO 205 colon
[33] = tested on: SK-OV-3 ovarian
[34] = tested on: TK-10 renal
[35] = tested on: DU-145 prostate
[36] = tested on: MOLT-4 leukemia
[37] = tested on: OVCAR-8 ovarian
[38] = tested on: SNB-19 CNS
[39] = tested on: SW-620 colon
[40] = tested on: HCC-2998 colon
[41] = tested on: OVCAR-5 ovarian
[42] = tested on: KM12 colon
[43] = tested on: SF-268 CNS
[44] = tested on: SNB-75 CNS
[45] = tested on: RXF 393 renal
[46] = tested on: IGROV1 ovarian
[47] = tested on: HCT-15 colon
[48] = tested on: U251 CNS
[49] = tested on: RPMI-8226 leukemia
[50] = tested on: HOP-62 NSCLC
[51] = tested on: HS 578T breast
[52] = tested on: HL-60(TB) leukemia
[53] = tested on: A498 renal
[54] = tested on: SK-MEL-28 melanoma
[55] = tested on: MDA-MB-435
[56] = tested on: SK-MEL-5 melanoma
[57] = tested on: OVCAR-4 ovarian
[58] = tested on: MALME-3M melanoma

SMILES: CN1CCN(Cc2ccc(NC(=O)c3cncc(C#Cc4cnc5ccc(O[C@H]6CCOC6)nn45)c3)cc2C(F)(F)F)CC1
- GI50 [1]: 186 nM
- TGI [1]: 743 nM
- GI50 [2]: 341 nM
- TGI [2]: 962 nM
- GI50 [3]: 149 nM
- TGI [3]: 752 nM
- GI50 [4]: 284 nM
- TGI [4]: 1440 nM
- GI50 [5]: 307 nM
- TGI [5]: 1060 nM
- GI50 [6]: 305 nM
- TGI [6]: 4760 nM
- GI50 [7]: 123 nM
- TGI [7]: 1040 nM
- GI50 [8]: 55.1 nM
- TGI [8]: 275 nM
- GI50 [9]: 187 nM
- TGI [9]: 397 nM
- GI50 [10]: 562 nM
- TGI [10]: 1320 nM
- GI50 [11]: 475 nM
- TGI [11]: 1450 nM
- GI50 [12]: 653 nM
- TGI [12]: 1380 nM
- GI50 [13]: 748 nM
- TGI [13]: 1510 nM
- GI50 [14]: 97.5 nM
- TGI [14]: 280 nM
- GI50 [15]: 1120 nM
- TGI [15]: 3100 nM
- GI50 [16]: 934 nM
- TGI [16]: 2210 nM
- GI50 [17]: 45.6 nM
- TGI [17]: 212 nM
- GI50 [18]: 623 nM
- TGI [18]: 1350 nM
- GI50 [19]: 431 nM
- TGI [19]: 1120 nM
- GI50 [20]: 720 nM
- TGI [20]: 2280 nM
- GI50 [21]: 591 nM
- TGI [21]: 1290 nM
- GI50 [22]: 226 nM
- TGI [22]: 744 nM
- GI50 [23]: 174 nM
- TGI [23]: 850 nM
- GI50 [24]: 5 nM
- TGI [24]: 544 nM
- GI50 [25]: 245 nM
- TGI [25]: 1000 nM
- GI50 [26]: 375 nM
- TGI [26]: 783 nM
- GI50 [27]: 396 nM
- TGI [27]: 1040 nM
- GI50 [28]: 171 nM
- TGI [28]: 771 nM
- GI50 [29]: 270 nM
- TGI [29]: 853 nM
- GI50 [30]: 194 nM
- TGI [30]: 826 nM
- GI50 [31]: 488 nM
- TGI [31]: 1160 nM
- GI50 [32]: 227 nM
- TGI [32]: 828 nM
- GI50 [33]: 848 nM
- TGI [33]: 1760 nM
- GI50 [34]: 484 nM
- TGI [34]: 1130 nM
- GI50 [35]: 521 nM
- TGI [35]: 1180 nM
- GI50 [36]: 289 nM
- TGI [36]: 2720 nM
- GI50 [37]: 675 nM
- TGI [37]: 1540 nM
- GI50 [38]: 1210 nM
- TGI [38]: 3240 nM
- GI50 [39]: 177 nM
- TGI [39]: 871 nM
- GI50 [40]: 341 nM
- TGI [40]: 964 nM
- GI50 [41]: 381 nM
- TGI [41]: 1210 nM
- GI50 [42]: 5 nM
- TGI [42]: 725 nM
- GI50 [43]: 593 nM
- TGI [43]: 1420 nM
- GI50 [44]: 295 nM
- TGI [44]: 795 nM
- GI50 [45]: 681 nM
- TGI [45]: 1440 nM
- GI50 [46]: 177 nM
- TGI [46]: 818 nM
- GI50 [47]: 385 nM
- TGI [47]: 1400 nM
- GI50 [48]: 575 nM
- TGI [48]: 1280 nM
- GI50 [49]: 815 nM
- TGI [49]: 2740 nM
- GI50 [50]: 505 nM
- TGI [50]: 1280 nM
- GI50 [51]: 555 nM
- TGI [51]: 1590 nM
- GI50 [52]: 194 nM
- TGI [52]: 692 nM
- GI50 [53]: 871 nM
- TGI [53]: 1590 nM
- GI50 [54]: 410 nM
- TGI [54]: 1110 nM
- GI50 [55]: 159 nM
- TGI [55]: 705 nM
- GI50 [56]: 716 nM
- TGI [56]: 1400 nM
- GI50 [57]: 490 nM
- TGI [57]: 1340 nM
- GI50 [58]: 97.6 nM
- TGI [58]: 438 nM
